Data as given in paper PMC11017246, “Discovery of GLPG2737, a Potent Type 2 Corrector of CFTR for the Treatment of Cystic Fibrosis in Combination with a Potentiator and a Type 1 Co-corrector” (Journal of Medicinal Chemistry, 2024).

Experiments:
[1] = Liver microsomal stability, human; type: in vitro ADME; details: liver microsomes; human microsomes; calculated from measured fumic; read-out: Mic CLint,u human (converted)
Procedure: (§1) The microsomal stability assay was performed by incubation of test compound at 1 μM, 0.2% DMSO in phosphate buffer with microsomes (0.5 mg/mL) from mouse, rat, dog, or human (Xeno-Tech, Kansas City, KS, USA), and cofactors with final concentrations of 0.6 U/mL glucose-6- phosphate dehydrogenase, 3.3 mM MgCl2, 3.3 mM glucose-6-phosphate, and 1.3 mM nicotinamide adenine dinucleotide phosphate (NADP)+. Before addition of the microsomes (time zero) and after 30 min of incubation at 37 °C with shaking, the reaction was stopped, and proteins were precipitated with an excess of acetonitrile containing an internal standard. The samples were mixed, centrifuged, and filtered, and the supernatant was analyzed by liquid chromatography–mass spectrometry/mass spectrometry (LC–MS/MS). The instrument responses (peak areas/IS peak areas) were referenced to the zero-time point samples (considered as 100%) to determine the percentage of compound remaining. In vitro unbound intrinsic clearance (CLint,u) was calculated from the half-life using the following equations: [drawing 1] [drawing 2] To take into account nonspecific binding, scaled CLint values were corrected with the fraction unbound in microsomes (fu, mic). [drawing 3]
(§2) Equilibrium dialysis is a technique used to measure microsomal binding. Briefly, the assay was performed in a 96-well Teflon dialysis unit (Dialysis Device), where each well consists of two chambers separated by a dialysis membrane (membrane strips, MW cutoff 12–14 kDa, HTDialysis). Inactivated liver microsomes (pooled human liver microsomes, Xenotech, protein concentration of 0.5 mg/mL) spiked with a compound (1 μM final concentration, 0.5% DMSO) were added to one chamber and buffer solution (50 mM PBS Buffer) was added to the other side of the well. Each compound was analyzed in duplicate for 4 h at 37 °C. At the end of incubation, both chambers were sampled and analyzed by LC-MS/MS. The unbound microsomal fraction (fu, mic) was calculated as the concentration in buffer divided by the total concentration in the microsomal side. Positive controls included in this assay are terfenadine and verapamil.

[2] = Hepatocyte stability, rat; type: in vitro ADME; details: read-out: Hep CLint,u rat (converted)
Procedure: (§3) The hepatocyte stability assay was performed by incubation of test compound at 1 μM, 0.03% DMSO in modified Krebs–Henseleit buffer with suspension of pooled cryopreserved hepatocytes (BioIVT, Hicksville, NY, USA) from mouse, rat, dog, or human (BioIVT, Hicksville, NY, USA) at 0.5 million viable hepatocytes/mL. Before adding the hepatocytes (time zero) and after 10, 20, 45, 90, 120, and 180 min of incubation (n = 2) at 37 °C while gently shaking, the reaction was stopped and proteins were precipitated with an excess of acetonitrile containing an internal standard. The samples were mixed, centrifuged, and filtered, and the supernatant was analyzed by liquid chromatography–mass spectrometry/mass spectrometry (LC–MS/MS). The instrument responses (peak areas/IS peak areas) were referenced to the zero-time point samples (considered as 100%) in order to determine the percentage of compound remaining.

[3] = Liver microsomal stability, rat; type: in vitro ADME; details: liver microsomes; rat microsomes; calculated from measured fumic; read-out: Mic CLint,u rat (converted)
Procedure: as §1, §2

[4] = target: T1, ΔF508 CFTR (Homo sapiens, UniProt P13569, DEL508-508); experiment: CSE-HRP: cell surface expression horseradish peroxidase assay in CFBE41o- cells; type: cell-based; details: no additional corrector; for Emax: CFBE41o-, relative to lumacaftor or 5 (3 μM) positive control, read-out: CSE-HRP % max activation; for EC50: 24 h incubation, 33 °C, geometric mean, read-out: CSE-HRP EC50
T1 construct: host or cells: CFBE41o- TetON cells, expression induced with doxycycline
Procedure: A CFBE41o– cell line stably expressing ΔF508 CFTR harboring an HRP-tag in the fourth extracellular loop was obtained from Professor Gergely Lukacs (Department of Physiology, McGill University, Montreal, QC, Canada).[25] Cells were grown in Eagle’s minimal essential medium (Life Technologies) supplemented with 10% FBS, 1% L-glutamine (Life Technologies), 10 mM HEPES (Life Technologies), 200 μg/mL Geneticin (Life Technologies), and 3 μg/mL puromycin (Sigma) in culture flasks coated with 0.01% bovine serum albumin (BSA) (Sigma), 30 μg/mL Purecol (Nutacon), and 0.001% human fibronectin (Sigma).
CFBE41o– TetON cells expressing HRP tagged ΔF508-CFTR were seeded in white 384-well plates (Greiner) at a density of 2000 cells per well. Medium containing 500 ng/mL doxycycline was used to induce expression of ΔF508-CFTR-HRP. After 3 days, cells were treated with corrector or potentiator compounds and transferred to an incubator at 33 °C. On day 4, cells were washed five times with PBS containing Ca^2+ and Mg^2+ using a Bio-Tek plate washer and incubated with a chemiluminescent HRP substrate (SuperSignal West Pico Chemiluminescent Substrate, Thermo Scientific) for 15 min. Chemiluminescence was measured using an Envision plate reader (PerkinElmer). Dose response data was fitted using a 4 parameter hill function of the form Response = neg control + (pos control – neg control)/(1 + 10^(log EC50-concentration)/HillSlope) to determine EC50 values. Percentage efficacy was calculated using the following formula: (max response – neg control)/(C1 response – neg control).

[5] = Hepatocyte stability, human; type: in vitro ADME; details: human hepatocytes; read-out: Hep CLint,u human
Procedure: as §3

[6] = pooled cryopreserved hepatocytes in suspension

T1 sequence (P13569 with tags, fused parts or gaps DEL508-508): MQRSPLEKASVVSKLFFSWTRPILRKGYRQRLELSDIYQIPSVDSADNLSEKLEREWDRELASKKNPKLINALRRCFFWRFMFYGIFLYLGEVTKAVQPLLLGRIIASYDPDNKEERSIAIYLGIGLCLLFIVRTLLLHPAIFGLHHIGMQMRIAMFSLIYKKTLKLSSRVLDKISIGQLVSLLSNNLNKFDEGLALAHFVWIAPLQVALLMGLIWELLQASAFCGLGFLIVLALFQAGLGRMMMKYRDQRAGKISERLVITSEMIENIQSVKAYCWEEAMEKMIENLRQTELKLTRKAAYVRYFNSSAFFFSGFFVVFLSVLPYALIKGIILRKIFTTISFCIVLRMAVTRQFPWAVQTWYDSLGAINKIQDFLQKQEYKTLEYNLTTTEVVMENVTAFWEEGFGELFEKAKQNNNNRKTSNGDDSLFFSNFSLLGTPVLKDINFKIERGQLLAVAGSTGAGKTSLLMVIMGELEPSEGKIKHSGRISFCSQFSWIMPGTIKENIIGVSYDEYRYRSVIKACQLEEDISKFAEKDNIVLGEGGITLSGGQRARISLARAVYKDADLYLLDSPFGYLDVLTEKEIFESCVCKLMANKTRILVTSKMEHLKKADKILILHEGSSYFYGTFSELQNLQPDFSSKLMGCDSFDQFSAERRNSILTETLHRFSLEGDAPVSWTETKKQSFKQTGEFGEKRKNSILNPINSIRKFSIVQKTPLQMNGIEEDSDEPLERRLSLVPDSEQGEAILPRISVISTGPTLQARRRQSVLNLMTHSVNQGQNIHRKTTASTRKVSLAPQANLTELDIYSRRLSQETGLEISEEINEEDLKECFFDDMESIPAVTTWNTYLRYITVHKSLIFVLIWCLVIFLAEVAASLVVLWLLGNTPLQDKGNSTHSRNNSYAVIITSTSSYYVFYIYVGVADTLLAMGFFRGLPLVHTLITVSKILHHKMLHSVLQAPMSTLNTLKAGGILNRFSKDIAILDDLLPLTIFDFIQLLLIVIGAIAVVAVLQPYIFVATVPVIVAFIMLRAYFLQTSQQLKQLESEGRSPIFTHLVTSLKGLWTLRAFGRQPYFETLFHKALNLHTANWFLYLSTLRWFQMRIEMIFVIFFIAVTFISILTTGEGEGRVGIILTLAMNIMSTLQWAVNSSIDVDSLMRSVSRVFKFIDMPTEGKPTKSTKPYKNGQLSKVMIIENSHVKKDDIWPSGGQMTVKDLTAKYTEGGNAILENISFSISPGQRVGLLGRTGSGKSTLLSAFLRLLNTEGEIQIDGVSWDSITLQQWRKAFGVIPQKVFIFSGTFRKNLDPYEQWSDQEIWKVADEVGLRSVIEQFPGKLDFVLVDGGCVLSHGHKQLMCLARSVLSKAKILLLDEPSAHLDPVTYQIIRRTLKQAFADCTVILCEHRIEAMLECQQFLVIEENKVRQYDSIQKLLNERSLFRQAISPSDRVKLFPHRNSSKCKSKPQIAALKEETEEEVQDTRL

## COc1ccc(-c2cc(C(=O)O)nc3c2c(C)nn3-c2ccc(C)cc2)cc1 [Compound 6]
[1]
  CLint scaled at 1 μM: < 59.8 mL/min/kg
[2]; [6]
  CLint scaled at 1 μM: 263 mL/min/kg
[3]
  CLint scaled at 1 μM: 182 mL/min/kg
[4]
  Emax: 64%
  EC50: 4.13 µM

## COc1ccc(-c2cc(C(=O)O)nc3c2c(C)nn3-c2ccccc2)cc1 [Compound 7]
[1]
  CLint scaled at 1 μM: 173 mL/min/kg
[2]; [6]
  CLint scaled at 1 μM: 305 mL/min/kg
[3]
  CLint scaled at 1 μM: 180 mL/min/kg
[4]
  Emax: 95%
  EC50: 2.48 µM

## Cc1nn(-c2ccccc2)c2nc(C(=O)O)cc(-c3ccc(N4CCOCC4)cc3)c12 [Compound 8]
[1]
  CLint scaled at 1 μM: < 28.3 mL/min/kg
[5]
  CLint scaled at 1 μM: < 45.7 mL/min/kg
[2]; rat hepatocytes
  CLint scaled at 1 μM: 66.7 mL/min/kg
[3]
  CLint scaled at 1 μM: < 43.3 mL/min/kg
